Measured values published in patent publication US20120135866A1, “INCREASING PLANT VIGOR” (DOW AGROSCIENCES LLC, priority 2007, published 2012).
“Also recorded” adds a separate entry of the source.

Tests used:
Assay type in all cases: in vivo
[1] = system: cotton aphid (CA) Aphis gossypii; assay: Test 1: cotton aphid counts on plants grown from soaked seeds; conditions: for Effect on number of aphids vs check: Test 1, seed soak, compound main effect
Method: (§1) Seeds were soaked beginning on T=0 days in solutions of either
(§2) Compound A, imidacloprid, or plain water containing 0.125% (v:v) Tween 20 (check treatment). Compounds were formulated as technical material in water containing 0.125% Tween 20. […] Solution concentrations were 50, 5, 0.5, 0.05 and 0.005 ppm. No evaporation was possible and a significant excess of solution was present to ensure abundant availability of either Compound A or imidacloprid from each solution. On average 20 ml of solution was used to soak groups of seed needed for the seed soaking phase of this test. Seeds were removed from these solutions on T=2 days and planted. Seeds exposed to each unique treatment were germinated as a groups in dedicated shallow plastic cups filled with white sand and containing plain water. Planting of these seeds occurred on T=2 days and the seeds were grown in these shallow cups until T=10 days. Initially 70 ml of water was added to each shallow cup at planting and additional water was added to the cups as needed to keep the sand moist. On T=10 days germinating seedlings were transplanted from the shallow germination cups to individual containers (plastic cups−6 reps per treatment) filled with white sand. Thirty ml of water was used to water the plants following transplanting. After the initial treatment water was added to cups as needed to maintain moisture for plant development. On T=14 days each plant was infested with cotton aphid (CA) Aphis gossypii by transferring a small piece of infested foliage to each test plant. The number of aphids transferred to each plant was uniform based on visual estimation. Plants were rated on T=17 days and T=18 days by counting the number of CA and taking the weight of the each plant. The plant part weighed was the aerial portion of the plant cut off at the surface of the sand. Data were analyzed using analysis of variance with an LSD means separation test (Minitab).
Raw data were not homogeneous and so replicate aphid counts were transformed using a square root count+0.5 transformation.

[2] = system: Corn (Zea mays 'M2T783') seeds; assay: Test 2: fresh plant weight of corn after seed soak; conditions: for Plant Weight % increase: corn seedling weight vs untreated Tween 20 water check, pooled across rates; for Plant Weight (g) Mean: corn, seed soak, pooled across rates 50-0.19 ppm, fresh weight after 13 days; for Tukey's pair-wise comparison of corn plant weight with untreated Tween 20 water check: pooled compound effects, family-wise error rate 0.05
Method: Technical samples of Compound A and imidacloprid were dissolved in water containing 0.125% Tween 20 (V:V). […] The treatment concentrations for Compound A and imidacloprid were 50, 12.5, 3.125, 0.78 and 0.19 ppm. Solutions were prepared in excess and 40 ml was added to 50 ml centrifuge tubes. Corn (Zea mays ‘M2T783’) seeds were inspected for uniform size and undamaged condition and were placed into each centrifuge tube containing specific compound by rate solutions. A treatment of only 0.125% aqueous Tween 20 was used to soak corn seeds and served as the untreated check. Tubes containing seeds and compound solutions were held at room temperature and after […] the seeds were removed from each solution, rinsed and planted into sand in 7.5 cm^2 pots. Tissue paper was placed into the bottom of each pot to keep sand from leaching from the pot. A total of 8 reps of each compound by rate combination were planted for both corn. Eight replicate pots of compound by rate combination were arranged in a completely randomized design on greenhouse carts. This arrangement of treated seeds in pots was placed into the greenhouse and watered over the top as needed. Each cart was equipped with a plastic rack that served to raise the pots up off the cart surface and away from any standing water. The carts were placed in the center of the greenhouse and were rotated 180 degrees daily. After 13 days the carts were moved to the laboratory and the plants were cut off at the soil surface and weighed. Fresh plant weight data were analyzed for homogeneity of variance using Levene's test and further evaluated using one way analysis of variance of individual treatment combinations (compound by rate) and pooled by compound across rates. Means were separated using Tukey's mean separation test with a family-wise error rate of 0.05. All analyses were conducted using Minitab
Corn data were homogeneous based on Levene's test for homgeneity of variance (p=0.116 and p=0.69 respectively). AOV of corn data did indicate a difference (F=3.22, P=0.045, df=2) for pooled compound effects but not for individual treatment effects.

[3] = system: plant grown from soaked seeds; assay: Test 1: plant weight (aerial portion) after seed soak; conditions: for Effect on plant weight vs check: Test 1, seed soak
Method: as §1, §2
Treatment number 4 experienced some negative effects associated with excess watering during the phase when these plants were being germinated. […] Only four replicate plants were able to be planted to individual growing cups. […] Prior to conducting an analysis of individual treatment effects (factorial analysis of variance, LSD means separation test P=0.05, Minitab) on weight Treatment 4 (Compound A 0.05 ppm) was removed from the analysis because it was judged to be an outlier based on poor growth as described above. The paired imidacloprid rate (0.05 ppm, No. 9) was also removed to keep the data balanced.

CS(=O)(=NC#N)C(Cl)c1ccc(C(F)(F)F)nc1 (stereo not drawn) [Compound A]
Effect on number of aphids vs check [1]: significantly more aphids in the check treatment; also recorded: reduced the number of aphids on plants
Aphids (#/plant) Rep 1 ([1]; seed soak 0.005 ppm): 72 #/plant
Aphids (#/plant) Rep 2 ([1]; seed soak 0.005 ppm): 110 #/plant
Aphids (#/plant) Rep 3 ([1]; seed soak 0.005 ppm): 35 #/plant
Aphids (#/plant) Rep 4 ([1]; seed soak 0.005 ppm): 70 #/plant
Aphids (#/plant) Rep 5 ([1]; seed soak 0.005 ppm): 55 #/plant
Aphids (#/plant) Rep 6 ([1]; seed soak 0.005 ppm): 15 #/plant
Aphids (#/plant) Rep 1 ([1]; seed soak 0.05 ppm): 70 #/plant
Aphids (#/plant) Rep 2 ([1]; seed soak 0.05 ppm): 80 #/plant
Aphids (#/plant) Rep 3 ([1]; seed soak 0.05 ppm): 60 #/plant
Aphids (#/plant) Rep 4 ([1]; seed soak 0.05 ppm): 35 #/plant
Aphids (#/plant) Rep 1 ([1]; seed soak 0.5 ppm): 55 #/plant
Aphids (#/plant) Rep 2 ([1]; seed soak 0.5 ppm): 75 #/plant
Aphids (#/plant) Rep 3 ([1]; seed soak 0.5 ppm): 65 #/plant
Aphids (#/plant) Rep 4 ([1]; seed soak 0.5 ppm): 40 #/plant
Aphids (#/plant) Rep 5 ([1]; seed soak 0.5 ppm): 45 #/plant
Aphids (#/plant) Rep 6 ([1]; seed soak 0.5 ppm): 30 #/plant
Aphids (#/plant) Rep 1 ([1]; seed soak 5 ppm): 23 #/plant
Aphids (#/plant) Rep 2 ([1]; seed soak 5 ppm): 25 #/plant
Aphids (#/plant) Rep 3 ([1]; seed soak 5 ppm): 33 #/plant
Aphids (#/plant) Rep 4 ([1]; seed soak 5 ppm): 65 #/plant
Aphids (#/plant) Rep 5 ([1]; seed soak 5 ppm): 25 #/plant
Aphids (#/plant) Rep 6 ([1]; seed soak 5 ppm): 32 #/plant
Aphids (#/plant) Rep 1 ([1]; seed soak 50 ppm): 4 #/plant
Aphids (#/plant) Rep 2 ([1]; seed soak 50 ppm): 2 #/plant
Aphids (#/plant) Rep 3 ([1]; seed soak 50 ppm): 2 #/plant
Aphids (#/plant) Rep 4 ([1]; seed soak 50 ppm): 12 #/plant
Aphids (#/plant) Rep 5 ([1]; seed soak 50 ppm): 18 #/plant
Aphids (#/plant) Rep 6 ([1]; seed soak 50 ppm): 2 #/plant
Plant Weight % increase [2]: 38.9%
Plant Weight (g) Mean [2]: 3.162 g
Tukey's pair-wise comparison of corn plant weight with untreated Tween 20 water check [2]: significantly different; also recorded: significantly increased plant weight
Effect on plant weight vs check [3]: significant increase in plant weight
Plant Weight (g) Rep 1 ([3]; seed soak 0.005 ppm): 2.36 g
Plant Weight (g) Rep 2 ([3]; seed soak 0.005 ppm): 1.76 g
Plant Weight (g) Rep 3 ([3]; seed soak 0.005 ppm): 2.09 g
Plant Weight (g) Rep 4 ([3]; seed soak 0.005 ppm): 2.22 g
Plant Weight (g) Rep 5 ([3]; seed soak 0.005 ppm): 1.92 g
Plant Weight (g) Rep 6 ([3]; seed soak 0.005 ppm): 1.93 g
Plant Weight (g) Rep 1 ([3]; seed soak 0.05 ppm): 0.73 g
Plant Weight (g) Rep 2 ([3]; seed soak 0.05 ppm): 1.35 g
Plant Weight (g) Rep 3 ([3]; seed soak 0.05 ppm): 1.2 g
Plant Weight (g) Rep 4 ([3]; seed soak 0.05 ppm): 1.1 g
Plant Weight (g) Rep 1 ([3]; seed soak 0.5 ppm): 1.84 g
Plant Weight (g) Rep 2 ([3]; seed soak 0.5 ppm): 1.88 g
Plant Weight (g) Rep 3 ([3]; seed soak 0.5 ppm): 2.04 g
Plant Weight (g) Rep 4 ([3]; seed soak 0.5 ppm): 2.13 g
Plant Weight (g) Rep 5 ([3]; seed soak 0.5 ppm): 1.96 g
Plant Weight (g) Rep 6 ([3]; seed soak 0.5 ppm): 1.8 g
Plant Weight (g) Rep 1 ([3]; seed soak 5 ppm): 2.23 g
Plant Weight (g) Rep 2 ([3]; seed soak 5 ppm): 2.1 g
Plant Weight (g) Rep 3 ([3]; seed soak 5 ppm): 1.79 g
Plant Weight (g) Rep 4 ([3]; seed soak 5 ppm): 2.53 g
Plant Weight (g) Rep 5 ([3]; seed soak 5 ppm): 1.87 g
Plant Weight (g) Rep 6 ([3]; seed soak 5 ppm): 1.9 g
Plant Weight (g) Rep 1 ([3]; seed soak 50 ppm): 2.29 g
Plant Weight (g) Rep 2 ([3]; seed soak 50 ppm): 2.22 g
Plant Weight (g) Rep 3 ([3]; seed soak 50 ppm): 2.12 g
Plant Weight (g) Rep 4 ([3]; seed soak 50 ppm): 1.87 g
Plant Weight (g) Rep 5 ([3]; seed soak 50 ppm): 1.87 g
Plant Weight (g) Rep 6 ([3]; seed soak 50 ppm): 2.14 g

O=[N+]([O-])NC1=NCCN1Cc1ccc(Cl)nc1 [Imidacloprid, imidacloprid]
Effect on number of aphids vs check [1]: significantly more aphids in the check treatment; also recorded: reduced the number of aphids on plants
Aphids (#/plant) Rep 1 ([1]; seed soak 0.005 ppm): 45 #/plant
Aphids (#/plant) Rep 2 ([1]; seed soak 0.005 ppm): 125 #/plant
Aphids (#/plant) Rep 3 ([1]; seed soak 0.005 ppm): 55 #/plant
Aphids (#/plant) Rep 4 ([1]; seed soak 0.005 ppm): 75 #/plant
Aphids (#/plant) Rep 5 ([1]; seed soak 0.005 ppm): 80 #/plant
Aphids (#/plant) Rep 6 ([1]; seed soak 0.005 ppm): 35 #/plant
Aphids (#/plant) Rep 1 ([1]; seed soak 0.05 ppm): 95 #/plant
Aphids (#/plant) Rep 2 ([1]; seed soak 0.05 ppm): 60 #/plant
Aphids (#/plant) Rep 3 ([1]; seed soak 0.05 ppm): 65 #/plant
Aphids (#/plant) Rep 4 ([1]; seed soak 0.05 ppm): 95 #/plant
Aphids (#/plant) Rep 5 ([1]; seed soak 0.05 ppm): 75 #/plant
Aphids (#/plant) Rep 6 ([1]; seed soak 0.05 ppm): 50 #/plant
Aphids (#/plant) Rep 1 ([1]; seed soak 0.5 ppm): 25 #/plant
Aphids (#/plant) Rep 2 ([1]; seed soak 0.5 ppm): 44 #/plant
Aphids (#/plant) Rep 3 ([1]; seed soak 0.5 ppm): 43 #/plant
Aphids (#/plant) Rep 4 ([1]; seed soak 0.5 ppm): 70 #/plant
Aphids (#/plant) Rep 5 ([1]; seed soak 0.5 ppm): 80 #/plant
Aphids (#/plant) Rep 6 ([1]; seed soak 0.5 ppm): 30 #/plant
Aphids (#/plant) Rep 1 ([1]; seed soak 5 ppm): 33 #/plant
Aphids (#/plant) Rep 2 ([1]; seed soak 5 ppm): 37 #/plant
Aphids (#/plant) Rep 3 ([1]; seed soak 5 ppm): 17 #/plant
Aphids (#/plant) Rep 4 ([1]; seed soak 5 ppm): 18 #/plant
Aphids (#/plant) Rep 5 ([1]; seed soak 5 ppm): 30 #/plant
Aphids (#/plant) Rep 6 ([1]; seed soak 5 ppm): 34 #/plant
Aphids (#/plant) Rep 1 ([1]; seed soak 50 ppm): 0 #/plant
Aphids (#/plant) Rep 2 ([1]; seed soak 50 ppm): 0 #/plant
Aphids (#/plant) Rep 3 ([1]; seed soak 50 ppm): 4 #/plant
Aphids (#/plant) Rep 4 ([1]; seed soak 50 ppm): 7 #/plant
Aphids (#/plant) Rep 5 ([1]; seed soak 50 ppm): 4 #/plant
Aphids (#/plant) Rep 6 ([1]; seed soak 50 ppm): 1 #/plant
Plant Weight % increase [2]: 24.8%
Plant Weight (g) Mean [2]: 2.841 g
Tukey's pair-wise comparison of corn plant weight with untreated Tween 20 water check [2]: not significantly different
Effect on plant weight vs check [3]: increased plant weights compared to the check plants
Plant Weight (g) Rep 1 ([3]; seed soak 0.005 ppm): 2.07 g
Plant Weight (g) Rep 2 ([3]; seed soak 0.005 ppm): 1.59 g
Plant Weight (g) Rep 3 ([3]; seed soak 0.005 ppm): 2.01 g
Plant Weight (g) Rep 4 ([3]; seed soak 0.005 ppm): 1.67 g
Plant Weight (g) Rep 5 ([3]; seed soak 0.005 ppm): 1.86 g
Plant Weight (g) Rep 6 ([3]; seed soak 0.005 ppm): 1.68 g
Plant Weight (g) Rep 1 ([3]; seed soak 0.05 ppm): 1.38 g
Plant Weight (g) Rep 2 ([3]; seed soak 0.05 ppm): 1.37 g
Plant Weight (g) Rep 3 ([3]; seed soak 0.05 ppm): 1.65 g
Plant Weight (g) Rep 4 ([3]; seed soak 0.05 ppm): 1.57 g
Plant Weight (g) Rep 5 ([3]; seed soak 0.05 ppm): 1.72 g
Plant Weight (g) Rep 6 ([3]; seed soak 0.05 ppm): 1.62 g
Plant Weight (g) Rep 1 ([3]; seed soak 0.5 ppm): 1.61 g
Plant Weight (g) Rep 2 ([3]; seed soak 0.5 ppm): 1.82 g
Plant Weight (g) Rep 3 ([3]; seed soak 0.5 ppm): 1.73 g
Plant Weight (g) Rep 4 ([3]; seed soak 0.5 ppm): 2.05 g
Plant Weight (g) Rep 5 ([3]; seed soak 0.5 ppm): 1.66 g
Plant Weight (g) Rep 6 ([3]; seed soak 0.5 ppm): 1.95 g
Plant Weight (g) Rep 1 ([3]; seed soak 5 ppm): 1.64 g
Plant Weight (g) Rep 2 ([3]; seed soak 5 ppm): 1.44 g
Plant Weight (g) Rep 3 ([3]; seed soak 5 ppm): 1.91 g
Plant Weight (g) Rep 4 ([3]; seed soak 5 ppm): 1.44 g
Plant Weight (g) Rep 5 ([3]; seed soak 5 ppm): 1.75 g
Plant Weight (g) Rep 6 ([3]; seed soak 5 ppm): 2.05 g
Plant Weight (g) Rep 1 ([3]; seed soak 50 ppm): 1.47 g
Plant Weight (g) Rep 2 ([3]; seed soak 50 ppm): 2.05 g
Plant Weight (g) Rep 3 ([3]; seed soak 50 ppm): 1.73 g
Plant Weight (g) Rep 4 ([3]; seed soak 50 ppm): 1.84 g
Plant Weight (g) Rep 5 ([3]; seed soak 50 ppm): 2.02 g
Plant Weight (g) Rep 6 ([3]; seed soak 50 ppm): 1.86 g
